The record followed here is US20230391760A1, “HETEROCYCLIC GLP-1 AGONISTS” (Gasherbrum Bio, Inc., priority 2020, published 2023).

GLP-1 Receptor, sequence (P43220 24-463, species assumed): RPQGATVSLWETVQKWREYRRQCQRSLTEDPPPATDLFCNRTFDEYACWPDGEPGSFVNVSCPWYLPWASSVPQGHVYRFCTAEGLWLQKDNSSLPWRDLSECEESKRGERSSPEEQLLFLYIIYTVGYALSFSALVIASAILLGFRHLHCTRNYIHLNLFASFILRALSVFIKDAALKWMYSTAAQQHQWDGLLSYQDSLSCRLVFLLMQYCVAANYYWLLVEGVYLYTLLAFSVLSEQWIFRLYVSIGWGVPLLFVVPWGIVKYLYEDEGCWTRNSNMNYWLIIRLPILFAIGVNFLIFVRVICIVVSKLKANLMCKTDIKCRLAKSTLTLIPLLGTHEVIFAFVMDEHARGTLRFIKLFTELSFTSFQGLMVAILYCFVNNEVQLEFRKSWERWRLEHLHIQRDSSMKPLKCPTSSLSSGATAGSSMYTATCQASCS

This assay has as its target GLP-1 Receptor (Homo sapiens, UniProt P43220). The assay is described as follows: GLP-1R agonist cAMP stimulation assay (HEK293/GLP1R/CRE-LUC cells, cAMP dynamic 2 Kit). In kind it is cell-based. To be noted: HEK293/CRE-Luc cell line stably expressing the GLP-1 Receptor, 30 min at 37° C. The procedure:
Activation of GLP-1 receptor is known to stimulate cyclic AMP (cAMP) production in cells which indicates primary coupling to the Gαs subunit of the G protein heterotrimeric complex. […] To optimize functional activity directed toward Gαs coupling, a HEK293/CRE-Luc cell line developed by HDB stably expressing the GLP-1 Receptor was used. 200×concentration of compound working solutions were prepared (Agilent Technologies Bravo) with 1/2 log serial dilution in 384-well Echo LDV plate (Labcyte, Cat #LP-0200). 50 nL/well 200× concentration of compound working solutions were moved to 384-well white low volume plate (Greiner,Cat #784075) using Labcyte ECHO550. 1×10^5 cells/mL HEK293/GLP1R/CRE-LUC(HD Biosciences) cell suspensions prepared with assay buffer[DPBS containing 0.5 mM IBMX(Sigma, Cat #15879) and 0.1% BSA (GENVIEW, Cat #FA016-100 g)], 10 uL cell suspensions were added to each well of previous generated assay plate which already contains 50 nl compound at 200×concentration using ThermoFisher Multidrop Combi (1000 cells/well). Seal the plate and incubate at 37° C. with 5% CO2 for 30 min. After incubation the cAMP assay signal was generated using cAMP dynamic 2 Kit (Cisbio). 5 μL cAMP-d2 working solution was added to each well, followed with 5 μL Anti-cAMP antibody-cryptate working solution added to each well using ThermoFisher Multidrop Combi. Incubate at room temperature for 1 hour protected from light.
In the case of `O=C(CC(F)(F)F)Nc1ccc2c(c1)nc(CN1CCC(c3cccc(OCc4ccc(Cl)cc4F)n3)CC1)n2C[C@@H]1CCO1` [Compound 150a, N-{2-[(4-{6-[(4-chloro-2-fluorophenyl)methoxy]pyridin-2-yl}piperidin-1-yl)methyl]-1-{[(2S)-oxetan-2-yl]methyl}-1H-1,3-benzodiazol-5-yl}-3,3,3-trifluoropropanamide], the concentration giving a half-maximal response (EC50) came out at 0.61 nM. `O=C(Nc1ccc2c(c1)nc(CN1CCC(c3cccc(OCc4ccc(Cl)cc4F)n3)CC1)n2C[C@@H]1CCO1)C1CCCC1` [Compound 151a, N-{2-[(4-{6-[(4-chloro-2-fluorophenyl)methoxy]pyridin-2-yl}piperidin-1-yl)methyl]-1-{[(2S)-oxetan-2-yl]methyl}-1H-1,3-benzodiazol-5-yl}cyclopentanecarboxamide] returned a concentration giving a half-maximal response (EC50) of 0.8 nM. This EC50 and that of the molecule before are within 1.5-fold of each other. In the case of `O=C(Nc1ccc2c(c1)nc(CN1CCC(c3cccc(OCc4ccc(Cl)cc4F)n3)CC1)n2C[C@@H]1CCO1)C1CC(F)(F)C1` [Compound 152a, N-{2-[(4-{6-[(4-chloro-2-fluorophenyl)methoxy]pyridin-2-yl}piperidin-1-yl)methyl]-1-{[(2S)-oxetan-2-yl]methyl}-1H-1,3-benzodiazol-5-yl}-3,3-difluorocyclobutane-1-carboxamide], the 50% effective concentration (EC50) was determined as 0.88 nM.

Take `O=C(Nc1ccc2c(c1)nc(CN1CCC(c3cccc(OCc4ccc(Cl)cc4F)n3)CC1)n2C[C@@H]1CCO1)C1CCOCC1` [Compound 153a, N-{2-[(4-{6-[(4-chloro-2-fluorophenyl)methoxy]pyridin-2-yl}piperidin-1-yl)methyl]-1-{[(2S)-oxetan-2-yl]methyl}-1H-1,3-benzodiazol-5-yl}oxane-4-carboxamide]: the concentration for a half-maximal effect (EC50) was 0.3 nM.

Turning to `O=C(Nc1ccc2c(c1)nc(CN1CCC(c3cccc(OCc4ccc(Cl)cc4F)n3)CC1)n2C[C@@H]1CCO1)C1CCCOC1` (stereo partly drawn) [Compound 154a, N-{2-[(4-{6-[(4-chloro-2-fluorophenyl)methoxy]pyridin-2-yl}piperidin-1-yl)methyl]-1-{[(2S)-oxetan-2-yl]methyl}-1H-1,3-benzodiazol-5-yl}oxane-3-carboxamide], a half-maximal effect (EC50) was put at 0.13 nM. Against the preceding molecule, the EC50 is about 2.3-fold lower. The same measure for `O=C(Nc1ccc2c(c1)nc(CN1CCC(c3cccc(OCc4ccc(Cl)cc4F)n3)CC1)n2C[C@@H]1CCO1)C1CCCCO1` (stereo partly drawn) [Compound 155a, N-{2-[(4-{6-[(4-chloro-2-fluorophenyl)methoxy]pyridin-2-yl}piperidin-1-yl)methyl]-1-{[(2S)-oxetan-2-yl]methyl}-1H-1,3-benzodiazol-5-yl}oxane-2-carboxamide]: 1 nM. With `O=C(Nc1ccc2c(c1)nc(CN1CCC(c3cccc(OCc4ccc(Cl)cc4F)n3)CC1)n2C[C@@H]1CCO1)C1CCS(=O)(=O)CC1` [Compound 156a, N-{2-[(4-{6-[(4-chloro-2-fluorophenyl)methoxy]pyridin-2-yl}piperidin-1-yl)methyl]-1-{[(2S)-oxetan-2-yl]methyl}-1H-1,3-benzodiazol-5-yl}-1,1-dioxo-1λ^6-thiane-4-carboxamide], the EC50 worked out at 3 nM. The molecule `CC1(c2ccc(Cl)cc2F)Oc2cccc(C3CCN(Cc4nc5cc(C(=O)O)ccc5n4C[C@@H]4CCO4)CC3)c2O1` (stereo partly drawn) [Compound 161a, 2-((4-(2-(4-chloro-2-fluorophenyl)-2-methylbenzo[d][1,3]dioxol-4-yl)piperidin-1-yl)methyl)-1-(((S)-oxetan-2-yl)methyl)-1H-benzo[d]imidazole-5-carboxylic acid] came in with an EC50 of 0.51 nM. This EC50 is about 5.9-fold lower than that of the molecule before. The value for `O=C(Nc1ccc2c(c1)nc(CN1CCC(c3cccc(OCc4ccc(Cl)cc4F)n3)CC1)n2C[C@@H]1CCO1)c1ccccc1` [Compound 166a, N-{2-[(4-{6-[(4-chloro-2-fluorophenyl)methoxy]pyridin-2-yl}piperidin-1-yl)methyl]-1-{[(2S)-oxetan-2-yl]methyl}-1H-1,3-benzodiazol-5-yl}benzamide] was 0.14 nM; that for `O=C(Nc1ccc2c(c1)nc(CN1CCC(c3cccc(OCc4ccc(Cl)cc4F)n3)CC1)n2C[C@@H]1CCO1)C(F)(F)F` [Compound 167a, N-{2-[(4-{6-[(4-chloro-2-fluorophenyl)methoxy]pyridin-2-yl}piperidin-1-yl)methyl]-1-{[(2S)-oxetan-2-yl]methyl}-1H-1,3-benzodiazol-5-yl}-2,2,2-trifluoroacetamide] was 1.1 nM; that for `O=C(Nc1ccc2c(c1)nc(CN1CCC(c3cccc(OCc4ccc(Cl)cc4F)n3)CC1)n2C[C@@H]1CCO1)c1cccnc1` [Compound 168a, N-{2-[(4-{6-[(4-chloro-2-fluorophenyl)methoxy]pyridin-2-yl}piperidin-1-yl)methyl]-1-{[(2S)-oxetan-2-yl]methyl}-1H-1,3-benzodiazol-5-yl}pyridine-3-carboxamide] was 0.058 nM. The same measure for `N#Cc1cccc(C(=O)Nc2ccc3c(c2)nc(CN2CCC(c4cccc(OCc5ccc(Cl)cc5F)n4)CC2)n3C[C@@H]2CCO2)c1` [Compound 169a, N-{2-[(4-{6-[(4-chloro-2-fluorophenyl)methoxy]pyridin-2-yl}piperidin-1-yl)methyl]-1-{[(2S)-oxetan-2-yl]methyl}-1H-1,3-benzodiazol-5-yl}-3-cyanobenzamide]: 0.92 nM; for `O=C(Nc1ccc2c(c1)nc(CN1CCC(c3cccc(OCc4ccc(Cl)cc4F)n3)CC1)n2C[C@@H]1CCO1)c1ccccn1` [Compound 170a, N-{2-[(4-{6-[(4-chloro-2-fluorophenyl)methoxy]pyridin-2-yl}piperidin-1-yl)methyl]-1-{[(2S)-oxetan-2-yl]methyl}-1H-1,3-benzodiazol-5-yl}pyridine-2-carboxamide]: 0.14 nM. The value for `O=C(Nc1ccc2c(c1)nc(CN1CCC(c3cccc(OCc4ccc(Cl)cc4F)n3)CC1)n2C[C@@H]1CCO1)c1ccncc1` [Compound 171a, N-{2-[(4-{6-[(4-chloro-2-fluorophenyl)methoxy]pyridin-2-yl}piperidin-1-yl)methyl]-1-{[(2S)-oxetan-2-yl]methyl}-1H-1,3-benzodiazol-5-yl}pyridine-4-carboxamide] was 0.27 nM; that for `O=C(Nc1ccc2c(c1)nc(CN1CCC(c3cccc(OCc4ccc(Cl)cc4F)n3)CC1)n2C[C@@H]1CCO1)C1COCCO1` (stereo partly drawn) [Compound 172a, N-{2-[(4-{6-[(4-chloro-2-fluorophenyl)methoxy]pyridin-2-yl}piperidin-1-yl)methyl]-1-{[(2S)-oxetan-2-yl]methyl}-1H-1,3-benzodiazol-5-yl}-1,4-dioxane-2-carboxamide] was 0.31 nM; that for `Cc1ccc(C(=O)Nc2ccc3c(c2)nc(CN2CCC(c4cccc(OCc5ccc(Cl)cc5F)n4)CC2)n3C[C@@H]2CCO2)cn1` [Compound 173a, N-{2-[(4-{6-[(4-chloro-2-fluorophenyl)methoxy]pyridin-2-yl}piperidin-1-yl)methyl]-1-{[(2S)-oxetan-2-yl]methyl}-1H-1,3-benzodiazol-5-yl}-6-methylpyridine-3-carboxamide] was 0.26 nM.

`CCc1ccc(C(=O)Nc2ccc3c(c2)nc(CN2CCC(c4cccc(OCc5ccc(Cl)cc5F)n4)CC2)n3C[C@@H]2CCO2)cn1` [Compound 174a, N-{2-[(4-{6-[(4-chloro-2-fluorophenyl)methoxy]pyridin-2-yl}piperidin-1-yl)methyl]-1-{[(2S)-oxetan-2-yl]methyl}-1H-1,3-benzodiazol-5-yl}-6-ethylpyridine-3-carboxamide]: the 50% effective concentration (EC50) worked out at 0.56 nM. `COc1ccc(C(=O)Nc2ccc3c(c2)nc(CN2CCC(c4cccc(OCc5ccc(Cl)cc5F)n4)CC2)n3C[C@@H]2CCO2)cn1` [Compound 175a, N-{2-[(4-{6-[(4-chloro-2-fluorophenyl)methoxy]pyridin-2-yl}piperidin-1-yl)methyl]-1-{[(2S)-oxetan-2-yl]methyl}-1H-1,3-benzodiazol-5-yl}-6-methoxypyridine-3-carboxamide] showed a concentration for a half-maximal effect (EC50) of 1.5 nM. `O=C(Nc1ccc2c(c1)nc(CN1CCC(c3cccc(OCc4ccc(Cl)cc4F)n3)CC1)n2C[C@@H]1CCO1)c1ccc(C2CC2)nc1` [Compound 176a, N-{2-[(4-{6-[(4-chloro-2-fluorophenyl)methoxy]pyridin-2-yl}piperidin-1-yl)methyl]-1-{[(2S)-oxetan-2-yl]methyl}-1H-1,3-benzodiazol-5-yl}-6-cyclopropylpyridine-3-carboxamide]: the midpoint of the response, the EC50, lay at 8.6 nM. The value for `COCCOc1ccc(C(=O)Nc2ccc3c(c2)nc(CN2CCC(c4cccc(OCc5ccc(Cl)cc5F)n4)CC2)n3C[C@@H]2CCO2)cn1` [Compound 177a, N-{2-[(4-{6-[(4-chloro-2-fluorophenyl)methoxy]pyridin-2-yl}piperidin-1-yl)methyl]-1-{[(2S)-oxetan-2-yl]methyl}-1H-1,3-benzodiazol-5-yl}-6-(2-methoxyethoxy)pyridine-3-carboxamide] was 5.9 nM; that for `Cc1cnccc1C(=O)Nc1ccc2c(c1)nc(CN1CCC(c3cccc(OCc4ccc(Cl)cc4F)n3)CC1)n2C[C@@H]1CCO1` [Compound 178a, N-{2-[(4-{6-[(4-chloro-2-fluorophenyl)methoxy]pyridin-2-yl}piperidin-1-yl)methyl]-1-{[(2S)-oxetan-2-yl]methyl}-1H-1,3-benzodiazol-5-yl}-3-methylpyridine-4-carboxamide] was 0.57 nM.

For orientation: EC50 means the concentration needed to bring the measured effect to its halfway point. Read a low EC50 as an effect from little substance.
